According to US20110217202A1, “ACTIVE OXYGEN DISINFECTION SYSTEM AND USE THEREOF” (priority 2010, published 2011):

Legend:
S. marcescens = experiment: Photosensitizer with or without H2O2 or PHMB, rate of kill, S. marcescens; format: cell-based
Description: All solutions (testing and control) are then incubated for about 5 minutes at 37° C. in the dark in an orbital incubator prior to exposure to the relevant light conditions. […]
(§1) After incubation overnight, the colony forming units at the dilution where they can best be counted are quantified and number of colony forming units per mL calculated.
In all instances the bacterial challenge is at least 5×10^5 cfu/mL. SoftWear Saline (providing 0.003% H2O2), photosensitizer solutions are made up at double the concentration to be tested using the SoftWear Saline as the diluent. 2.5 mLs of this solution is then mixed with 2.5 mLs of bacteria to form the test solutions.
In all instances the bacterial challenge is at least 5×10^5 cfu/mL. Solutions containing the photosensitizers and PHMB are made up separately at quadruple the concentration to be tested.

P. aeruginosa = experiment: Photosensitizer rate of kill under light exposure, P. aeruginosa; format: cell-based
Description: P. aeruginosa is grown in nutrient broth for about 18 hours to bring the bacteria into the logarithmic growth phase prior to being spun down via centrifugation and the pellet resuspended in sterile phosphate buffered saline (PBS). The bacterial suspension is then diluted to obtain an OD of 0.9 at 540 nm. This stock bacterial solution is subsequently diluted 1 in 500 to obtain a test solution containing about 10^5-10^6 cfu/ml.
A solution of one of the five photosensitizers is made at double the concentration to be tested.
A testing solution (lens care solution) is prepared by adding 5 mL of a photosensitizer solution to 5 mL of the bacterial solution.
Two control solutions are prepared by adding 5 mL of sterile PBS to 5 mL of the bacterial solution. One of the two control solutions is kept in the dark (i.e., Control Dark) and the other one is exposed to the same light conditions as the photosensitizer test solutions (i.e., Control Light).
All solutions (testing and control) are then incubated for about 5 minutes at 37° C. in the dark in an orbital incubator prior to exposure to the relevant light conditions. The light source used provides broad spectrum visible light and the temperature is controlled using a fan.
as §1
All solutions are then incubated for about 5 minutes at 37° C. in the dark in an orbital incubator prior to exposure to the relevant light conditions.
Two light sources are used to assess antibacterial activity of the range of photosensitizers. One is a broad spectrum light source which emits light across visible spectrum. […] The other light source used is a red LED, which emits light of a single wavelength at 630 nm.
The red LED light source emits with a power of 27 mW/cm2. In both instances, the power is measured using an ILT-1400 A Radiometer/Photometer.
as §1

C. albicans = experiment: Photosensitizer with PHMB, rate of kill, C. albicans; format: cell-based; details: 10 μg/mL with 0.00005% PHMB; LED 630 nm; one hour; about 10^7 cfu/ml
Description: All materials used and the method used to determine the rate of bacterial kill are described in Example 1 as was the method. In all instances the bacterial challenge is at least 5×10^5 cfu/mL. Solutions containing the photosensitizers and PHMB are made up separately at quadruple the concentration to be tested. 1.25 mLs of each solution is then added to 2.5 mLs of bacteria suspension to render the correct concentration to be tested.
Where a testing solution contains 10 μg/mL TMPyP and 0.00005% PHMB, a 5 Log reduction in bacterial viability against about 10^7 cfu/ml C. albicans is observed after one hour of light exposure to a LED (630 nm).

[1] = dissociation constant of the dibasic compound; cited from earlier work
[2] = 5 μg/mL, red light/LED 630 nm, one hour, about 10^5 cfu/ml
[3] = 10 μg/mL, broad spectrum light source, about 45 minutes, about 10^5 cfu/ml

Compound: CN(C)c1ccc2nc3ccc(=[N+](C)C)cc-3sc2c1 [MB, Methylene Blue]
- Log reduction in bacterial viability (S. marcescens; 20 μg/mL, free of H2O2, red LED 630 nm, one hour, about 10^5 cfu/ml): no reduction in bacterial viability

Compound: O=C1OC2(c3cc(I)c(O)c(I)c3Oc3c2cc(I)c(O)c3I)c2c(Cl)c(Cl)c(Cl)c(Cl)c21 [RB, Rose Bengal]
- Log reduction in bacterial viability (P. aeruginosa; about 250 μg/mL, broad spectrum visible light, 30 minutes, about 10^5 cfu/ml): 5-6 Log
- Log reduction in bacterial viability (S. marcescens; 10 μg/mL with 0.00005% PHMB, LED 630 nm, 15 minutes, about 10^5 cfu/ml): 2 Log
- further reduction in bacterial viability on additional light exposure (S. marcescens; 10 μg/mL with 0.00005% PHMB, LED 630 nm, additional light exposure up to one hour): does not reduce bacterial viability
- Log reduction in bacterial viability (S. marcescens; 10 μg/mL with 0.003% H2O2, LED 630 nm, about 10^5 cfu/ml): no reduction in bacterial viability
- Log reduction in bacterial viability (S. marcescens; 10 μg/mL, free of H2O2 or PHMB, LED 630 nm, about 10^5 cfu/ml): no reduction in bacterial viability

Compound: Cc1cc2nc3ccc(N(C)C)cc3[s+]c2cc1N.[Cl-] [TBO, Toluidine Blue O]
- Log reduction in bacterial viability (P. aeruginosa; 5 μg/mL, broad spectrum light source, about 30 minutes, about 10^5 cfu/ml): 5-6 Log
- Log reduction in bacterial viability (P. aeruginosa; [2]): 5-6 Log
- Log reduction in bacterial viability (P. aeruginosa; [3]): 5-6 Log
- Log reduction in bacterial viability (P. aeruginosa; 50 μg/mL, broad spectrum light source, between 30 to 45 minutes, about 10^5 cfu/ml): 3 Log
- reduction in bacterial viability (P. aeruginosa; 250 μg/mL, broad spectrum visible light, time not stated, about 10^5 cfu/ml): no reduction in bacterial viability
- Rate of kill (Log reduction in bacterial viability) (P. aeruginosa; 375 μg/mL, broad spectrum visible light, 30 minutes light exposure, about 10^5 cfu/ml): 5-6 Log
- Time of Light Exposure (P. aeruginosa; 375 μg/mL, broad spectrum visible light, time for the stated rate of kill): 30 min
- Rate of kill (Log reduction in bacterial viability) (P. aeruginosa; 500 μg/mL, broad spectrum visible light, 15 minutes light exposure, about 10^5 cfu/ml): 5-6 Log
- Time of Light Exposure (P. aeruginosa; 500 μg/mL, broad spectrum visible light, time for the stated rate of kill (Table 2)): 15 min
- Log reduction in bacterial viability (S. marcescens; 0.625 μg/mL with 0.00005% PHMB, LED 630 nm, about 15 minutes, about 10^5 cfu/ml): 3 Log
- Log reduction in bacterial viability (S. marcescens; 0.625 μg/mL with 0.00005% PHMB, LED 630 nm, about 30 minutes, about 10^5 cfu/ml): 5-6 Log
- Log reduction in bacterial viability (S. marcescens; 1.25 μg/mL with 0.00005% PHMB, red LED 630 nm, about 15 minutes, about 10^5 cfu/ml): 3 Log
- Log reduction in bacterial viability (S. marcescens; 1.25 μg/mL with 0.00005% PHMB, red LED 630 nm, about 45 minutes, about 10^5 cfu/ml): 5-6 Log
- Log reduction in bacterial viability (S. marcescens; 2.5 μg/mL with 0.00005% PHMB, red LED 630 nm, about 30 minutes, about 10^5 cfu/ml): 5-6 Log
- Log reduction in bacterial viability (S. marcescens; 2.5 μg/mL with 0.0005% PHMB, red LED 630 nm, about 15 minutes, about 10^5 cfu/ml): 5-6 Log
- Log reduction in bacterial viability (S. marcescens; 2.5 μg/mL with 0.003% H2O2, red LED 630 nm, 30 minutes, about 10^5 cfu/ml): 5-6 Log
- Log reduction in bacterial viability (S. marcescens; 5 μg/mL only, free of H2O2, red LED 630 nm, 45 minutes): 5-6 Log

Compound: C[n+]1ccc(-c2c3nc(c(-c4cc[n+](C)cc4)c4ccc([nH]4)c(-c4cc[n+](C)cc4)c4nc(c(-c5cc[n+](C)cc5)c5ccc2[nH]5)C=C4)C=C3)cc1.Cc1ccc(S(=O)(=O)[O-])cc1.Cc1ccc(S(=O)(=O)[O-])cc1.Cc1ccc(S(=O)(=O)[O-])cc1.Cc1ccc(S(=O)(=O)[O-])cc1 [TMPyP, tetra(N-methyl-4-pyridyl)porphine tetratosylate]
- Log reduction in bacterial viability (P. aeruginosa; 5 μg/mL, broad spectrum light source, one hour, about 10^5 cfu/ml): 2 Log
- Log reduction in bacterial viability (P. aeruginosa; 5 μg/mL, broad spectrum light source, two hours, about 10^5 cfu/ml): 5-6 Log
- Log reduction in bacterial viability (P. aeruginosa; [2]): 2 Log
- Log reduction in bacterial viability (P. aeruginosa; [3]): 5-6 Log
- Log reduction in bacterial viability (P. aeruginosa; 10 μg/mL, red LED 630 nm, about 45 minutes, about 10^5 cfu/ml): 5-6 Log
- Rate of kill (Log reduction in bacterial viability) (P. aeruginosa; 50 μg/mL, broad spectrum visible light, 45 minutes light exposure, about 10^5 cfu/ml): 5-6 Log
- Time of Light Exposure (P. aeruginosa; 50 μg/mL, broad spectrum visible light, time for the stated rate of kill): 45 min
- Rate of kill (Log reduction in bacterial viability) (P. aeruginosa; 250 μg/mL, broad spectrum visible light, 45 minutes light exposure, about 10^5 cfu/ml): 5-6 Log
- Time of Light Exposure (P. aeruginosa; 250 μg/mL, broad spectrum visible light, time for the stated rate of kill): 45 min
- Rate of kill (Log reduction in bacterial viability) (P. aeruginosa; 500 μg/mL, broad spectrum visible light, 30 minutes light exposure, about 10^5 cfu/ml): 5-6 Log
- Time of Light Exposure (P. aeruginosa; 500 μg/mL, broad spectrum visible light, time for the stated rate of kill (Table 1)): 30 min
- Log reduction in bacterial viability (C. albicans): 5 Log
- Log reduction in bacterial viability (S. marcescens; 10 μg/mL with 0.00005% PHMB, red LED 630 nm, about 45 minutes, about 10^5 cfu/ml): 3 Log
- Log reduction in bacterial viability (S. marcescens; 10 μg/mL with 0.0005% PHMB, red LED 630 nm, about 15 minutes, about 10^5 cfu/ml): 5-6 Log
- Log reduction in bacterial viability (S. marcescens; 10 μg/mL with 0.003% H2O2, red LED 630 nm, one hour, about 10^5 cfu/ml): about 3 Log

Compound: Cl.Cl.O=S(=O)(O)c1ccc(-c2c3nc(c(-c4ccc(S(=O)(=O)O)cc4)c4ccc([nH]4)c(-c4ccc(S(=O)(=O)O)cc4)c4nc(c(-c5ccc(S(=O)(=O)O)cc5)c5ccc2[nH]5)C=C4)C=C3)cc1 [TSPP, meso-tetra(4-sulfonatophenyl)porphine dihydrochloride]
- biocidal activity (P. aeruginosa; about 1 mg/mL, broad spectrum visible light, about 10^5 cfu/ml): no significant biocidal activity

Compound: OCC(CO)(CO)NCCCNC(CO)(CO)CO [bis-TRIS-propane, 1,3-bis(tris[hydroxymethyl]methylamino)propane]
- pKa1 [1]: 6.8
- pKa2 [1]: 9.5

Compound: polyhexamethylene biguanide [PHMB]
- Log reduction in bacterial viability (S. marcescens; 0.00005% PHMB without any sensitizer, one hour, about 10^5 cfu/ml): 1 Log
